According to patent publication US20190374576A1, “VIRAL METHODS OF T CELL THERAPY” (Intima Bioscience, Inc., priority 2016, published 2019):

Key:
Experiment in all cases: Validation of gRNAs: Surveyor digest, gel electrophoresis, densitometry in HEK293T cells
Format in all cases: cell-based, human
CCR5 = CCR5 target gene site, 3 days
Protocol: (§1) HEK293T cells were plated out at a density of 1×10^5 cells per well in a 24 well plate. 150 uL of Opti-MEM medium was combined with 1.5 ug of gRNA plasmid, 1.5 ug of Cas9 plasmid. Another 150 uL of Opti-MEM medium was combined with 5 ul of Lipofectamine 2000 Transfection reagent (Invitrogen). The solutions were combined together and incubated for 15 minutes at room temperature. The DNA-lipid complex was added dropwise to wells of the 24 well plates. Cells were incubated for 3 days at 37° C. and genomic DNA was collected using the GeneJET Genomic DNA Purification Kit (Thermo Scientific). Activity of the gRNAs was quantified by a Surveyor Digest, gel electrophoresis, and densitometry (FIG. 60 and FIG. 61) (Guschin, D. Y., et al., “A Rapid and General Assay for Monitoring Endogenous Gene Modification,” Methods in Molecular Biology, 649: 247-256 (2010)).

PD1 = PD1 target gene site, 3 days
Protocol: HEK293T cells were plated out at a density of 1×10^5 cells per well in a 24 well plate. 150 uL of Opti-MEM medium was combined with 1.5 ug of gRNA plasmid, 1.5 ug of Cas9 plasmid. Another 150 uL of Opti-MEM medium was combined with 5 ul of Lipofectamine 2000 Transfection reagent (Invitrogen). The solutions were combined together and incubated for 15 minutes at room temperature. […] Cells were incubated for 3 days at 37° C. and genomic DNA was collected using the GeneJET Genomic DNA Purification Kit (Thermo Scientific). Activity of the gRNAs was quantified by a Surveyor Digest, gel electrophoresis, and densitometry (FIG. 60 and FIG. 61) (Guschin, D. Y., et al., “A Rapid and General Assay for Monitoring Endogenous Gene Modification,” Methods in Molecular Biology, 649: 247-256 (2010)).

CTLA4 = CTLA4 target gene site, 3 days
Protocol: as §1

## CCR5 gRNA#2: sense primer SEQ ID 63 CACCGTCATCCTCCTGACAATCGAT
CCR5
  efficiency of Cas9/gRNA pair in creating double strand break (DSB), percent of gene modifications: >60%

## PD1 gRNA#2: sense primer SEQ ID 35 CACCGCCTGCTCGTGGTGACCGAAG
PD1
  efficiency of Cas9/gRNA pair in creating double strand break (DSB), percent of gene modifications: >60%

B1: CTLA4 gRNA#3: sense primer (SEQ ID printed 'Si') … (nucleic acid)
guide: GCTAGATGATTCCATCTGCACGUUUUAGAGCUAGAAAUAGCAAGUUAAAAUAAGGCUAGUCCGUUAUCAACUUGAAAAAGUGGCACCGAGUCGGUGCUUUU
modifications: 2'-O-methyl 3'-phosphorothioate modifications added, positions not given here
CTLA4
  efficiency of Cas9/gRNA pair in creating double strand break (DSB), percent of gene modifications: 39.33%
